# Assay results: patent EP0021292A1, “Alkoxybenzylpyridopyrimidines, methods for their preparation and pharmaceutical formulations thereof” (THE WELLCOME FOUNDATION LIMITED, priority 1979, dated 1981)
# What was measured:
# [1] = target: T1, DHFR partially purified from rat liver (Rattus norvegicus, UniProt Q920D2); assay: Inhibition of mammalian dihydrofolate reductase (DHFR); assay type: biochemical
# T1 construct: DHFR partially purified from rat liver; from tissue; host or cells: rat liver
# T1 sequence (Q920D2 1-187): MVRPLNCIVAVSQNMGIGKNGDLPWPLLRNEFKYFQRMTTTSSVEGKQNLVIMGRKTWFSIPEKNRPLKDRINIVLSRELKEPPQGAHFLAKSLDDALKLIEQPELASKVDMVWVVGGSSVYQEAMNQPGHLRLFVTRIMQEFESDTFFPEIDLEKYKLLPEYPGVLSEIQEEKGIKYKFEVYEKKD
# Protocol: The inhibitory effect of the test compounds against DHFR partially purified from rat liver was determined.
# [2] = target: Histamine N-methyl-transferase ( HMT ) (Homo sapiens, UniProt P50135); assay: Inhibition of histamine N-methyltransferase (HMT); assay type: biochemical; settings: read-out: % inhibition of HMT at 10^-5M
# Protocol: EXAMPLE 4 Inhibition of Histamine N-methyl-transferase ( HMT ) by 2,4-Diamino-6-benzylpyrido(2,3-d)pyrimidine
# The effect of the test compounds used in Example 3 against HMT was determined. An inhibition of less than 20% was considered acceptable and the lack of any effect on this enzyme is most desirable since any interference with histamine metabolism should be minimized.
# Leukemia P388 cells = assay: Antileukemic effect on intraperitoneally inoculated P388 leukemia in mice; assay type: in vivo, CDF, Charles River female mice; settings: for antileukemic activity: mice, 22, 33.5, 50 and 75 mg/kg, same schedule (twice daily for three days); for % increases in life span: mice
# From the text: Leukemia P388 cells were inoculated intraperitoneally in CDF, Charles River female mice, each animal receiving 10^6 cells. On the second day after implantation with the leukemic cells, drug treatment was commenced and continued twice daily for three days.
# Solid Walker 256 tumors = assay: Antitumor effect on subcutaneously implanted Walker 256 tumors in rats; assay type: in vivo; settings: for mean tumor volume as % of the untreated group: after 17 days
# Protocol: Solid Walker 256 tumors were implanted subcutaneously into three groups of rats. On the third day after implantation with the tumors drug treatment was commenced and continued for 5 successive days. One group of rats was treated with 2,4-diamino-6-(2,5-dimethoxybenzyl)-5-methylpyrido(2,3-d) pyrimidine at a dose of 25mg/kg q.i.d., a second group was treated with the same compound at 15 mg/kg b.i.d.; the third group were left untreated as controls.
# In a second study tumors were implanted subcutaneously and drug treatment delayed until 10 days after implantation. Drug treatment consisted of 30 mg/kg q.i.d. on days 10-13 and 50 mg/kg on days 20, 24 and 28 after tumor implantation. Mean tumor volumes were measured during the course of this study. […] Twenty-three days after tumor implantation T/C was 0.03.
# [3] = Acute toxicity in mice (i.p.); settings: mouse, in vivo, ip
# Protocol: The acute toxicity of the title compounds was determined in mice ( i.p. ). The following results were obtained:-
# Chain of Histamine N-methyl-transferase ( HMT ) (P50135 whole entry, species assumed): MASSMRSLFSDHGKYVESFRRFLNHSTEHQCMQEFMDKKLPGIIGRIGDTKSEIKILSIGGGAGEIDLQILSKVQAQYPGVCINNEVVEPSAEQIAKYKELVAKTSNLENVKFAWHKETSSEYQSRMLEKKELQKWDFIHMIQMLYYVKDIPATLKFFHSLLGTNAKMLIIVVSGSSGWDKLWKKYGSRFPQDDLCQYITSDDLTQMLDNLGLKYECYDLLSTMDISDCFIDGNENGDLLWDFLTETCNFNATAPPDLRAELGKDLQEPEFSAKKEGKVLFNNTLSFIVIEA
Compound,IC50 [1],inhibition at 10 µM [2],also measured
"Cc1c(Cc2ccccc2Cl)cnc2nc(N)nc(N)c12 [the 1st table, row 5]",16 nM,59%,–
COc1ccc(Cc2cnc3nc(N)nc(N)c3c2C)cc1,–,–,antileukemic activity (Leukemia P388 cells): inactive at all doses
CCc1ccc(Cc2cnc3nc(N)nc(N)c3c2C)cc1,90 nM,55%,–
Nc1nc(N)c2cc(Cc3ccccc3)cnc2n1,250 nM,48%,–
COc1ccccc1Cc1cnc2nc(N)nc(N)c2c1C,50 nM,18%,–
Cc1c(Cc2ccccc2Cl)cnc2nc(N)nc(N)c12 [2-chlorobenzyl compound],–,–,antileukemic activity (Leukemia P388 cells): only marginal or slight activity
"COc1ccc(OC)c(Cc2cnc3nc(N)nc(N)c3c2C)c1 [2,4-Diamino-5-methyl-6-(2,5-dimethoxybenzyl)pyrido-(2,3-d)pyrimidine)]",–,–,"mean tumor volume as % of the untreated group (Solid Walker 256 tumors; 15 mg/kg b.i.d. for 5 successive days from third day after implantation): 10%; mean tumor volume as % of the untreated group (Solid Walker 256 tumors; 25mg/kg q.i.d. for 5 successive days from third day after implantation): 29%; mean tumor volume during the period of observation (Solid Walker 256 tumors; second study, 30 mg/kg q.i.d. on days 10-13 and 50 mg/kg on days 20, 24 and 28): decrease in mean tumor volume; T/C (Solid Walker 256 tumors; second study, 30 mg/kg q.i.d. on days 10-13 and 50 mg/kg on days 20, 24 and 28, twenty-three days after tumor implantation): 0.03; % increases in life span (Leukemia P388 cells; 22 mg/kg twice daily for three days from second day): 145%; % increases in life span (Leukemia P388 cells; 33.5 mg/kg twice daily for three days from second day): 159%; % increases in life span (Leukemia P388 cells; 50 mg/kg twice daily for three days from second day): 140%; % increases in life span (Leukemia P388 cells; 75 mg/kg twice daily for three days from second day): 154%; drug-related toxicity (Leukemia P388 cells; mice, 22, 33.5, 50 and 75 mg/kg twice daily for three days): no evidence of drug-related toxicity; LD50 [3]: ~500 mg/kg"
Cc1c(Cc2ccccc2)cnc2nc(N)nc(N)c12 [-CH2 Ph],40 nM,51%,–
"COc1ccc(Cc2cnc3nc(N)nc(N)c3c2C)cc1 [the 1st table, row 8]",53 nM,20%,–
Cc1ccc(Cc2cnc3nc(N)nc(N)c3c2C)cc1,27 nM,–,–
COc1ccc(Cc2cnc3nc(N)nc(N)c3c2C)cc1OC,7.8 nM,19%,–
"COc1ccc(OC)c(Cc2cnc3nc(N)nc(N)c3c2C)c1 [the 1st table, row 11]",–,11%,–
